The values that follow are results of earlier work, collected in paper PMC6377828 (Clinical cancer research : an official journal of the …, 2018).

Where two headings read alike, the source gives them in different places.

The test system of this data set is αvβ6-expressing xenograft tumor. The note with it: murine xenograft models.

On to [^18F]FBA-A20FMDV2, for which the tumor uptake (1 h) is 0.66 % ID/g and the tumor uptake (4 h) is 0.06 % ID/g.
